In assay [1] the test system is angiotensin II-induced blood pressure increase. Put plainly: Inhibitory activity on angiotensin II-induced blood pressure increase. In kind it is in vivo. The following applies: male SD rat, FIG. 1. As for the experimental part: Inhibitory Activity on Angiotensin II-Induced Blood Pressure Increase
The in vivo angiotensin II antagonist activity of the Compound a and the Compound B was evaluated by following, as an index, the blood pressure increase induced by intravenous injection of angiotensin II.
A male SD rat (10 to 12-week old) was anesthetized with pentobarbital, and a cannular for measuring blood pressure was inserted into the right femoral artery while a cannular for injecting angiotensin II was inserted into the right jugular vein, the cannulars were then fixed on the back side of the neck as exposed.
One day after the surgery, the rat was subjected to the test under unanaesthetized, unstrained, and unfasted condition. The artery cannular was connected to a blood pressure transducer, and the blood pressure and heart rate were continuously recorded on a polygraph with an aid of an amplifier. Once the blood pressure and heart rate are stabilized, angiotensin II (0.1 nmol/kg) was administered via the vein cannular. The angiotensin II was repeatedly administered until a stable hypertensive response is obtained. After that, the Compound a (1 mg/kg or 3 mg/kg) or the Compound B (3 mg/kg) was orally administered, and the hypertensive response induced by angiotensin II was observed over time until 24 hours after the administration. […]

For a further assay, the target named is T1, human PPAR 2 (Homo sapiens, UniProt P37231).
T1 construct: the amino acids 182 to 505 of human PPAR 2; expressed in transfected cells; host or cells: COS7 cells
T1 sequence (P37231 182-505): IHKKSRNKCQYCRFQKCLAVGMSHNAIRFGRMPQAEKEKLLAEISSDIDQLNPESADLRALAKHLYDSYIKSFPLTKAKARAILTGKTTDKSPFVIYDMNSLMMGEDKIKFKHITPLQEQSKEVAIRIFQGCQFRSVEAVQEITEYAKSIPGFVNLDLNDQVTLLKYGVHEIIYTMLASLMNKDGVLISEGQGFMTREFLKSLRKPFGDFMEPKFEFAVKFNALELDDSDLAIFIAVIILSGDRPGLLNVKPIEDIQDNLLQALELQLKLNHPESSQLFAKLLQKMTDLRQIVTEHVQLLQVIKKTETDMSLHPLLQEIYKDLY
Put plainly: PPAR activating activity, Gal4-PPAR chimera luciferase transfection assay using COS7 cells. The class given is cell-based. The following applies: relative to Rosiglitazone. As for the experimental part: PPAR Activating Activity The agonist activity of the Compound a and the Compound b on PPAR was measured based on the transfection assay using COS7 cells (DS Pharma Biomedical Co., Ltd., Osaka, Japan), which are the cell line derived from the kidney of the African green monkey. COS7 cells were cultured under 5% CO2 concentration, and DMEM medium containing 10% fetal bovine serum, glutamic acid, and antibiotics was used as a medium. As an expression vector, a chimera in which DNA binding domain of Gal4 which is a yeast transcription factor, and ligand binding domain of human PPAR 2 are fused, i.e., a fused product between the amino acids 1 to 147 of Gal4 transcription factor and the amino acids 182 to 505 of human PPAR 2, was used. Furthermore, as a reporter vector, a firefly luciferase containing five copies of Gal4 recognition sequence in the promoter region was used. Plasmid transfection of the cells was performed according to a method which uses jetPEI (trade name, manufactured by Funakoshi Co., Ltd., Tokyo, Japan). […] After that, the luciferase activity and -galactosidase activity in the cell lysis solution were measured. […] The percentage of the luciferase activity of the Compound a or the Compound b (1 to 30 mol/L) was calculated when the luciferase activity of Rosiglitazone (3 to 10 mol/L) is 100% and the luciferase activity in the absence of the Compound a or the Compound b is 0%. […]

For `CCCCc1nc(C)n(-c2ncc(OC)cn2)c(=O)c1Cc1ccc(-c2ccccc2-c2noc(=O)[nH]2)cc1` [Compound b, 3-{4′-{[6-butyl-3-(5-methoxypyrimidin-2-yl)-2-methylpyrimidin-4(3H)-on-5-yl]methyl}biphenyl-2-yl}-1,2,4-oxadiazol-5(4H)-one], the “effect of inhibiting the angiotensin II-induced blood pressure increase, compared with Compound a 3 mg/kg” value in assay [1] (oral 3 mg/kg) is reported as “substantially the same degree as the administration of the Compound a with dosage of 3 mg/kg”. Moreover, the “inhibitory action on angiotensin II-induced blood pressure increase, 24 hours after the administration” value in assay [1] (oral, Compound a 1 or 3 mg/kg, Compound B 3 mg/kg, 24 hours after administration) is reported as “its effect was almost completely lost 24 hours after the administration”. Besides, the “percentage of the luciferase activity (Rosiglitazone = 100%, absence of compound = 0%)” value at human PPAR 2 is on record as 24%.

For the origin of these results see patent US20110306623A1, “NOVEL COMPOUNDS COMPRISING A 3-(5-ALKOXYPYRIMIDIN-2-YL) PYRIMIDIN-4(3H)-ONE STRUCTURE AND DRUGS THAT COMPRISE SAME” (KOWA COMPANY, LTD., priority 2009, published 2011).
